The results in this text go back to the METLIN SMRT retention time set (Domingo-Almenara et al. 2019).

This data set in a line: gradient 5% acetonitrile 3 min, to 50% in 2 min, to 85% in 15 min, held 3 min, 100 µL/min. As to conditions: column: Zorbax Extend-C18 2.1 x 50 mm; eluents: water / acetonitrile, 0.1% formic acid. In short, it runs like this:
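Over 3 months, pure standards in mixtures of ~100 molecules were run by HPLC coupled to a quadrupole time-of-flight mass spectrometer in positive and negative ionization mode. The column was a Zorbax Extend-C18 (2.1 × 50 mm, 1.8 μm) at 100 μL/min, eluted with water and acetonitrile each holding 0.1% formic acid, with 40 μL dead and 900 μL dwell volumes. Retention time was determined from adduct peaks chosen by software and checked manually.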
As to `CCN1C(=O)COc2ccc(-c3csc(NC(=O)c4ccncc4)n3)cc21`, the RP-LC retention time is 748 s.

`Cc1nn2c(CNS(=O)(=O)c3ccccc3C)c(-c3ccccc3)nc2s1` displayed an RP-LC retention time of 827 s.

Compound `COc1cc(C(=O)N2CCN(c3cc(N4CCCC4)nc(C)n3)CC2)cc(OC)c1OC` returned an RP-LC retention time of 619 s.

For the compound `Cc1nc(-c2ccccc2)sc1C(=O)Nc1nc(-c2ccccc2)c(C)s1`, the RP-LC retention time worked out at 1210 s.

`Cc1nn(-c2ccccc2)c(C)c1S(=O)(=O)N1CCC(C(=O)NCc2ccccc2)CC1` gave an RP-LC retention time of 886 s.

For `COc1ccc(-c2nc3n(c2C(=O)Nc2nc(-c4ccc(C)cc4)cs2)CCS3(=O)=O)cc1`, the RP-LC retention time stood at 1060 s.

`COc1ccc(OC)c(NC(=O)CN2C(=O)CC(c3ccc(Cl)cc3)=Nc3cccnc32)c1` showed an RP-LC retention time of 1040 s.

With `CCc1nc2cc(-c3noc(-c4ccncc4)n3)ccc2o1`, the RP-LC retention time came to 959 s.

On to `CCn1ncc(N2CCCC(CC(=O)N3CCSCC3)C2)cc1=O` (centres undefined), for which the RP-LC retention time is 684 s.

Compound `CSc1cccc(NC(=O)Cn2cnc3nc(N4CCC(C(=O)NC5CC5)CC4)sc3c2=O)c1` registered an RP-LC retention time of 696 s.

Turning to `CCOc1ccccc1NC(=O)Cn1c(-c2ccccc2)nc(CC)cc1=O`, the RP-LC retention time was 1320 s.

Compound `COc1cc(CNC(=O)c2nnc(-c3ccc(S(=O)(=O)N(C)C)cc3)o2)cc(OC)c1` displayed an RP-LC retention time of 846 s.

With `COC(=O)c1c(NC(C)C)c2cccc(Cl)c2[nH]c1=O`, the RP-LC retention time came to 725 s.

`Cc1ccc(-c2cn3ccn(-c4ccc(C)c(C)c4)c(=O)c3n2)cc1` yielded an RP-LC retention time of 931 s.

Take `Cc1ccc(C(=O)N2CCCCCCNC(=O)[C@@H]3CCCC[C@@H]32)s1`: the RP-LC retention time is 813 s.

The compound `O=c1n(Cc2ccc(F)cc2Cl)nc2ccc(S(=O)(=O)N3CCCC3)cn12` returned an RP-LC retention time of 922 s.

Take `COc1ccc(NC(=O)c2c(O)c3cccnc3n(-c3cccc(F)c3)c2=O)cc1`: the RP-LC retention time came out at 1190 s.

Take `COc1ccc(Cl)cc1NC(=O)Cn1c(C)nc2c(sc3nc(-c4ccccc4)ccc32)c1=O`: the RP-LC retention time came out at 1180 s.

`COc1cccc(-c2noc(Cn3ccn(-c4ccc(Cl)cc4)c(=O)c3=O)n2)c1OC` came in with an RP-LC retention time of 824 s.

`CCC(=O)N1c2ccccc2NC2=C(C(=O)CC(C)(C)C2)C1c1ccc(C(=O)OC)cc1` (centres undefined) displayed an RP-LC retention time of 749 s.

For `CC1CN(c2ccc(Cl)cc2)c2nc3c(c(=O)n(CC(=O)O)c(=O)n3C)n2C1` (centres undefined), the RP-LC retention time is 790 s.

Compound `CCOC(=O)c1nc(N2CCN(c3ccccc3)CC2)c2ccccc2n1` displayed an RP-LC retention time of 893 s.

For the compound `O=C(NCc1ccco1)Nc1cccn2c(C3CCC3)nnc12`, the RP-LC retention time worked out at 694 s.

Regarding `O=C(Nc1ccc(F)cc1)N1CCCCCC1`, the RP-LC retention time amounted to 738 s.

In the case of `Cc1nnc2cc(N3CCN(C(=O)Nc4cccc(F)c4)CC3)cnn12`, the RP-LC retention time was found to be 624 s.

Take `CC(=O)Nc1ccccc1SC(CC(=O)c1ccco1)c1ccc2c(c1)OCO2` (centres undefined): the RP-LC retention time is 858 s.

As to `Cc1ccc(N2C(=O)CN(S(C)(=O)=O)CC2(C)C(=O)NC2CCCCCC2)cc1Cl` (centres undefined), the RP-LC retention time was 946 s.

Consider `COCc1cc2nn(CC(=O)NC3CCCCC3)c(=O)n2c(-c2ccccc2)n1`, for which the RP-LC retention time was 785 s.

In the case of `O=C(NC1CCN(C(=O)c2cc(-c3cccs3)[nH]n2)CC1)c1ccc(Cl)cc1`, the RP-LC retention time worked out at 778 s.

The compound `N#Cc1cc2c(nc1SCC(=O)Nc1nccs1)CCCCC2` returned an RP-LC retention time of 871 s.

`O=C(Nc1ccc(F)cc1F)Nc1nccn(-c2ccc(F)cc2)c1=O` showed an RP-LC retention time of 942 s.

Consider `COc1cc(OC)cc(N2C(=O)c3cc(C)nn3CC2(C)C(=O)NCc2ccc(F)cc2)c1` (centres undefined), for which the RP-LC retention time is 829 s.

For `CN1CCn2ccnc2C12CCN(C(=O)Nc1ccccc1Cl)CC2`, the RP-LC retention time was determined as 576 s.

Turning to `COc1cccc(-c2[nH]ncc2CNS(=O)(=O)c2cc(OC)ccc2OC)c1`, the RP-LC retention time came out at 756 s.

For `C=CCn1c(=O)c2ccccc2n(Cc2nc(-c3ccc(CC)cc3)no2)c1=O`, the RP-LC retention time came to 1160 s.

Compound `CCCCNc1nc(-c2ccccc2F)nc2ccccc12` registered an RP-LC retention time of 730 s.

The compound `COc1ccccc1-c1cc2c(=O)n(Cc3nc(-c4cccc(OC)c4OC)oc3C)ccn2n1` came in with an RP-LC retention time of 1060 s.

`COc1ccc(OC)c(NC(=O)C2CCN(S(=O)(=O)c3cn(C(C)C)cn3)CC2)c1`: the RP-LC retention time came out at 778 s.

With `Cc1cc(=O)n(CC(=O)Nc2cccc(C)c2C)c(N2CCOCC2)n1`, the RP-LC retention time came to 673 s.

Compound `COc1ccc(C(=O)N2CCc3ccc(C(=O)NCc4ccc(C)o4)cc32)cc1` had an RP-LC retention time of 865 s.

`COC(=O)c1cccc(C(=O)Nc2ccc(C)c(Cl)c2)n1` returned an RP-LC retention time of 991 s.

For the compound `Cc1ccc(NC(=O)N2CCN(c3cc(C)nc(N4CCOCC4)n3)CC2)c(C)c1`, the RP-LC retention time stood at 666 s.

Regarding `C[C@@H]1c2ccccc2CCN1C(=O)c1ccccc1F`, the RP-LC retention time was 919 s.

Compound `Nc1nnc(Cc2ccc3c(c2)OCCO3)o1` displayed an RP-LC retention time of 589 s.

Regarding `COc1ccc(NC(=O)c2cccc(N3CCNC(c4ccccc4)C3)n2)cc1` (centres undefined), the RP-LC retention time turned out to be 665 s.

`CCNc1nc(N2CCCC2)nc(-n2cnc(SC)n2)n1` registered an RP-LC retention time of 885 s.

`COc1cccc(NC(=O)c2sc(C)nc2-c2ccc([N+](=O)[O-])cc2)c1` showed an RP-LC retention time of 849 s.

The compound `Cc1ccc(CNC(=O)C(=O)NCC(c2ccc3c(c2)CCCN3C)N2CCCC2)cc1` (centres undefined) gave an RP-LC retention time of 746 s.

In turn, `O=C1CC(c2nc(-c3ccccc3)no2)CN1c1ccc2c(c1)OCCO2` (centres undefined) gave an RP-LC retention time of 933 s.

`Cc1nc(-c2ccc(N3CCN(C(=O)c4cccs4)CC3)nc2)sc1C` displayed an RP-LC retention time of 823 s.

On to `Cn1c(=O)n([C@H]2CCCN(S(=O)(=O)c3cccc4nsnc34)C2)c2ncccc21`, for which the RP-LC retention time amounted to 822 s.

Turning to `CNC(=O)c1nc(C(C)(C)NC(=O)c2ccoc2)nc2c1OCO2`, the RP-LC retention time is 624 s.

Regarding `Cc1ccc(C(=O)N2CCC3(CC2)N=C(c2cccc(Br)c2)NO3)cc1`, the RP-LC retention time came out at 938 s.

In turn, `CCCOc1ccccc1C(=O)Nc1nonc1-c1ccccc1` yielded an RP-LC retention time of 991 s.

Regarding `O=C(CCCc1nc2cccnc2n1Cc1ccc(F)cc1)N1CCCC1`, the RP-LC retention time came out at 707 s.

In turn, `COc1ccc(OC)c(NC(=O)N2CCCn3nc(-c4cccs4)cc3C2)c1` yielded an RP-LC retention time of 867 s.

`CC(C)n1ccc(-c2nnc(NC(=O)C3CCCN(S(C)(=O)=O)C3)o2)n1` (centres undefined) yielded an RP-LC retention time of 609 s.

With `CCCCN1C(=O)c2ccccc2C(C(=O)NCc2cccnc2)C12CCCCC2` (centres undefined), the RP-LC retention time is 678 s.

`CCCN1C(=O)COc2ccc(-c3noc(-c4ccn(CC)n4)n3)cc21` registered an RP-LC retention time of 956 s.
